According to ChEMBL document CHEMBL1201862, “PubChem BioAssay data set” (2004):
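48-hour exposure; five concentrations; linearly interpolated endpoints. GI50 = concentration required for 50% inhibition of growth.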 Calls of active or inactive are those of the source. Rule as the data show it: active = GI50 up to about 1.1 µM and inactive = higher.

Assays:
Assay in all cases: DTP human tumour cell line panel, 48 h
[1] = system: HCT-15
[2] = system: RXF 393
[3] = system: KM12
[4] = system: UO-31
[5] = system: DMS-114
[6] = system: SF-268
[7] = system: NCI-H460
[8] = system: SK-OV-3
[9] = system: A498
[10] = system: HOP-62
[11] = system: COLO 205
[12] = system: NCI-H226
[13] = system: MOLT-4
[14] = system: SK-MEL-28
[15] = system: SNB-78
[16] = system: 786-0
[17] = system: SK-MEL-5
[18] = system: ACHN
[19] = system: A549
[20] = system: Malme-3M

Measured: GI50

COc1ccc2c3c1C(=O)CCCC3CO2 (stereo not given)
> 100 µM: [1]
inactive: [2] > 100 µM | [3] > 100 µM | [4] > 100 µM | [5] > 100 µM | [6] > 100 µM | [7] > 100 µM | [8] > 100 µM | [9] > 100 µM | [10] > 100 µM | [11] > 100 µM | [12] > 100 µM | [13] > 100 µM | [14] > 100 µM | [15] > 100 µM | [16] > 100 µM | [17] > 100 µM | [18] > 100 µM | [19] > 100 µM | [20] > 100 µM
